Results as given in patent publication US20090247559A1 (Exelixis, Inc., priority 2007, published 2009).

Experiments:
[1] = biological target: PIM (PIM-1, PIM-2, and/or PIM-3); experiment: PIM-1, PIM-2 and PIM-3 inhibition, biochemical chemiluminescence assays (Kinase Glo, IC50 determination); settings: Table 1 activity class; PIM refers to PIM-1, PIM-2, and/or PIM-3; read-out: PIM IC50 (Activity B)
[2] = biological target: CK2 (Homo sapiens, UniProt P68400); experiment: CK2 inhibition, biochemical chemiluminescence holoenzyme assay (Kinase Glo, IC50 determination); settings: Table 1 activity class; symbol given only if active; read-out: CK2 IC50 (Activity C)
In short: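 Holoenzyme CK2 assay; compounds pre-incubated with substrate and enzyme, then reacted 150 min at 24-27° C. Remaining ATP measured as luminescence with Kinase Glo, and IC50 derived from the signal.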

CK2, sequence (P68400 whole entry): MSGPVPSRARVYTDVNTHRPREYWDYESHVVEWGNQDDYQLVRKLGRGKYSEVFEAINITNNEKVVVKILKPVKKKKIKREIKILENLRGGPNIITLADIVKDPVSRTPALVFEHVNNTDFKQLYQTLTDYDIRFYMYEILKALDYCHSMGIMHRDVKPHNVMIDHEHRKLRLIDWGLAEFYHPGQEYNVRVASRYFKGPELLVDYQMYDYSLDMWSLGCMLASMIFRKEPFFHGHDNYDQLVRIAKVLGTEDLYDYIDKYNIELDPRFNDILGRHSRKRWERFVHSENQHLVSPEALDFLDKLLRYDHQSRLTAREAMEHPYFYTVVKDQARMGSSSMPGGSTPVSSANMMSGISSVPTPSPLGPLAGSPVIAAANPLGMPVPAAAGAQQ
CK2, sequence (P67870 whole entry partner): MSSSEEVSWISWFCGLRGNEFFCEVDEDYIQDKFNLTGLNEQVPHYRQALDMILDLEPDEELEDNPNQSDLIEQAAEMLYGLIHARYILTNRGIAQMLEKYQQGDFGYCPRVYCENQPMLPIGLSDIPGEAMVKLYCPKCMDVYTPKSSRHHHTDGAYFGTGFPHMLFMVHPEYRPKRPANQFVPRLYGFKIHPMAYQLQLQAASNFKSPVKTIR

| IC50 [1] | IC50 [2] | Structure (SMILES) |
| --- | --- | --- |
| < 10 µM | < 10 µM | Nc1cc(C(=O)Nc2ccc(-c3nc4c(oc5ccc(Br)cc54)c(=O)[nH]3)c(Cl)c2)ccn1 [Compound 284, 2-amino-N-[4-(8-bromo-4-oxo-3,4-dihydro[1]benzofuro[3,2-d]pyrimidin-2-yl)-3-chlorophenyl]pyridine-4-carboxamide] |
| < 10 µM | < 10 µM | COc1ccc(C(=O)Nc2ccc(-c3nc4c(oc5ccc(Br)cc54)c(=O)[nH]3)c(Cl)c2)cc1 [Compound 285, N-[4-(8-bromo-4-oxo-3,4-dihydro[1]benzofuro[3,2-d]pyrimidin-2-yl)-3-chlorophenyl]-4-(methyloxy)benzamide] |
| < 10 µM | < 10 µM | O=C1CC(O)CN1Cc1nc2c(oc3ccc(Br)cc32)c(=O)[nH]1 (stereo not shown) [Compound 286, 8-bromo-2-[(4-hydroxy-2-oxopyrrolidin-1-yl)methyl][1]benzofuro[3,2-d]pyrimidin-4(3H)-one] |
| < 10 µM | < 10 µM | O=c1[nH]c(COCC2CCNC2)nc2c1oc1ccc(Br)cc12 (stereo not shown) [Compound 288, 8-bromo-2-{[(pyrrolidin-3-ylmethyl)oxy]methyl}[1]benzofuro[3,2-d]pyrimidin-4(3H)-one] |
| < 10 µM | < 10 µM | O=C(Nc1ccc(-c2nc3c(oc4ccc(Br)cc43)c(=O)[nH]2)c(Cl)c1)c1cccnc1 [Compound 292, N-[4-(8-bromo-4-oxo-3,4-dihydro[1]benzofuro[3,2-d]pyrimidin-2-yl)-3-chlorophenyl]pyridine-3-carboxamide] |
| < 10 µM | < 10 µM | CCN1C[C@@H]2C[C@H]1CN2Cc1nc2c(oc3ccc(Br)cc32)c(=O)[nH]1 [Compound 295, 8-bromo-2-{[(1S,4S)-5-ethyl-2,5-diazabicyclo[2.2.1]hept-2-yl]methyl}[1]benzofuro[3,2-d]pyrimidin-4(3H)-one] |
| < 10 µM | < 10 µM | CC(C)(C)OC(=O)N1CCOC(c2nc3c(oc4ccc(Br)cc43)c(=O)[nH]2)C1 (stereo not shown) [Compound 297, 1,1-Dimethylethyl 2-(8-bromo-4-oxo-3,4-dihydro[1]benzofuro[3,2-d]pyrimidin-2-yl)morpholine-4-carboxylate] |
| < 10 µM | < 10 µM | O=c1[nH]c(-c2cc(OC3CCNCC3)no2)nc2c1oc1ccc(Br)cc12 [Compound 299, 8-Bromo-2-[3-(piperidin-4-yloxy)isoxazol-5-yl][1]benzofuro[3,2-d]pyrimidin-4(3H)-one] |
| < 10 µM | < 10 µM | O=c1[nH]c(-c2ccc3c(c2)CCNC3)nc2c1oc1ccc(Br)cc12 [Compound 300, 8-Bromo-2-(1,2,3,4-tetrahydroisoquinolin-6-yl)[1]benzofuro[3,2-d]pyrimidin-4(3H)-one] |
| < 10 µM | < 10 µM | O=c1[nH]c(-c2ccc(N3CCNCC3)cc2)nc2c1oc1ccc(Br)cc12 [Compound 303, 8-Bromo-2-(4-piperazin-1-ylphenyl)[1]benzofuro[3,2-d]pyrimidin-4(3H)-one] |
| < 10 µM | < 10 µM | O=C1CC(c2nc3c(oc4ccc(Br)cc43)c(=O)[nH]2)CN1C1CCNCC1 (stereo not shown) [Compound 304, 8-Bromo-2-(5-oxo-1-piperidin-4-ylpyrrolidin-3-yl)[1]benzofuro[3,2-d]pyrimidin-4(3H)-one] |
| < 10 µM | < 10 µM | O=c1[nH]c(CN2CCCC(CO)C2)nc2c1oc1ccc(Br)cc12 (stereo not shown) [Compound 306, 8-bromo-2-{[3-(hydroxymethyl)piperidin-1-yl]methyl}[1]benzofuro[3,2-d]pyrimidin-4(3H)-one] |
| < 10 µM | < 10 µM | O=c1[nH]c(NCCO)nc2c1oc1ccc(Br)cc12 [Compound 309, 8-Bromo-2-[(2-hydroxyethyl)amino][1]benzofuro[3,2-d]pyrimidin-4(3H)-one] |
| < 10 µM | < 10 µM | O=C(O)Cc1nc2c(oc3ccc(Br)cc32)c(=O)[nH]1 [Compound 310, (8-bromo-4-oxo-3,4-dihydro[1]benzofuro[3,2-d]pyrimidin-2-yl)acetic acid] |
| < 10 µM | < 10 µM | O=C(Nc1ccc(Cl)c(-c2nc3c(oc4ccc(Br)cc43)c(=O)[nH]2)c1)c1ccncc1 [Compound 314, N-[3-(8-bromo-4-oxo-3,4-dihydro[1]benzofuro[3,2-d]pyrimidin-2-yl)-4-chlorophenyl]pyridine-4-carboxamide] |
| < 10 µM | < 10 µM | O=c1[nH]c(CN2CCC(F)(F)C2)nc2c1oc1ccc(Br)cc12 [Compound 318, 8-bromo-2-[(3,3-difluoropyrrolidin-1-yl)methyl][1]benzofuro[3,2-d]pyrimidin-4(3H)-one] |

| IC50 [1] | IC50 [2] | Structure (SMILES) |
| --- | --- | --- |
| < 10 µM | < 10 µM | O=C(NCc1ccncc1)C1CCN(Cc2nc3c(oc4ccc(Br)cc43)c(=O)[nH]2)C1 (stereo not shown) [Compound 325, 1-[(8-bromo-4-oxo-3,4-dihydro[1]benzofuro[3,2-d]pyrimidin-2-yl)methyl]-N-(pyridin-4-ylmethyl)pyrrolidine-3-carboxamide] |
| < 10 µM | < 10 µM | O=C(Nc1ccc(Cl)c(-c2nc3c(oc4ccc(Br)cc43)c(=O)[nH]2)c1)c1ccnc(Cl)c1 [Compound 326, N-[3-(8-bromo-4-oxo-3,4-dihydro[1]benzofuro[3,2-d]pyrimidin-2-yl)-4-chlorophenyl]-2-chloropyridine-4-carboxamide] |
| < 10 µM | < 10 µM | O=C(Nc1ccc(Cl)c(-c2nc3c(oc4ccc(Br)cc43)c(=O)[nH]2)c1)c1cncnc1 [Compound 329, N-[3-(8-bromo-4-oxo-3,4-dihydro[1]benzofuro[3,2-d]pyrimidin-2-yl)-4-chlorophenyl]pyrimidine-5-carboxamide] |
| < 10 µM | < 10 µM | COC(=O)c1ccc(C(=O)Nc2ccc(-c3nc4c(oc5ccc(Br)cc54)c(=O)[nH]3)c(Cl)c2)nc1 [Compound 334, methyl 6-({[4-(8-bromo-4-oxo-3,4-dihydro[1]benzofuro[3,2-d]pyrimidin-2-yl)-3-chlorophenyl]amino}carbonyl)pyridine-3-carboxylate] |
| < 10 µM | < 10 µM | COc1cc(C(=O)Nc2ccc(-c3nc4c(oc5ccc(Br)cc54)c(=O)[nH]3)c(Cl)c2)ccn1 [Compound 335, N-[4-(8-bromo-4-oxo-3,4-dihydro[1]benzofuro[3,2-d]pyrimidin-2-yl)-3-chlorophenyl]-2-(methyloxy)pyridine-4-carboxamide] |
| < 10 µM | < 10 µM | O=C(Nc1ccc(-c2nc3c(oc4ccc(Br)cc43)c(=O)[nH]2)c(Cl)c1)c1ccc(Br)cn1 [Compound 336, 5-bromo-N-[4-(8-bromo-4-oxo-3,4-dihydro[1]benzofuro[3,2-d]pyrimidin-2-yl)-3-chlorophenyl]pyridine-2-carboxamide] |
| < 10 µM | < 10 µM | COc1cc(C(=O)Nc2ccc(Cl)c(-c3nc4c(oc5ccc(Br)cc54)c(=O)[nH]3)c2)ccn1 [Compound 337, N-[3-(8-bromo-4-oxo-3,4-dihydro[1]benzofuro[3,2-d]pyrimidin-2-yl)-4-chlorophenyl]-2-(methyloxy)pyridine-4-carboxamide] |
| < 10 µM | < 10 µM | O=C(Nc1ccc(-c2nc3c(oc4ccc(Br)cc43)c(=O)[nH]2)c(Cl)c1)c1ccc(Cl)cn1 [Compound 339, N-[4-(8-bromo-4-oxo-3,4-dihydro[1]benzofuro[3,2-d]pyrimidin-2-yl)-3-chlorophenyl]-5-chloropyridine-2-carboxamide] |
| < 10 µM | < 10 µM | O=C(Nc1ccc(Cl)c(-c2nc3c(oc4ccc(Br)cc43)c(=O)[nH]2)c1)c1ccc(Cl)cn1 [Compound 340, N-[3-(8-bromo-4-oxo-3,4-dihydro[1]benzofuro[3,2-d]pyrimidin-2-yl)-4-chlorophenyl]-5-chloropyridine-2-carboxamide] |
| < 10 µM | < 10 µM | O=C(Nc1ccc(-c2nc3c(oc4ccc(Br)cc43)c(=O)[nH]2)c(Cl)c1)c1ccoc1 [Compound 341, N-[4-(8-bromo-4-oxo-3,4-dihydro[1]benzofuro[3,2-d]pyrimidin-2-yl)-3-chlorophenyl]furan-3-carboxamide] |
| < 10 µM | < 10 µM | O=C(Nc1ccc(Cl)c(-c2nc3c(oc4ccc(Br)cc43)c(=O)[nH]2)c1)c1ccoc1 [Compound 342, N-[3-(8-bromo-4-oxo-3,4-dihydro[1]benzofuro[3,2-d]pyrimidin-2-yl)-4-chlorophenyl]furan-3-carboxamide] |
| < 10 µM | < 10 µM | O=C(Nc1ccc(-c2nc3c(oc4ccc(Br)cc43)c(=O)[nH]2)c(Cl)c1)c1ccc(CO)cn1 [Compound 345, N-[4-(8-bromo-4-oxo-3,4-dihydro[1]benzofuro[3,2-d]pyrimidin-2-yl)-3-chlorophenyl]-5-(hydroxymethyl)pyridine-2-carboxamide] |
| < 10 µM | < 10 µM | Cn1nc(OC2CCNCC2)cc1-c1nc2c(oc3ccc(Br)cc32)c(=O)[nH]1 [Compound 351, 8-Bromo-2-[1-methyl-3-(piperidin-4-yloxy)-1H-pyrazol-5-yl][1]benzofuro[3,2-d]pyrimidin-4(3H)-one] |
| < 10 µM | < 10 µM | NCc1nc(-c2nc3c(oc4ccc(Br)cc43)c(=O)[nH]2)cs1 [Compound 352, 2-[2-(Aminomethyl)-1,3-thiazol-4-yl]-8-bromo[1]benzofuro[3,2-d]pyrimidin-4(3H)-one] |
| < 10 µM | < 10 µM | Nc1ccc(-c2nc3c(oc4ccc(Br)cc43)c(=O)[nH]2)cc1 [Compound 354, 2-(4-Aminophenyl)-8-bromo[1]benzofuro[3,2-d]pyrimidin-4(3H)-one] |
| < 10 µM | < 10 µM | Nc1cccc(-c2nc3c(oc4ccc(Br)cc43)c(=O)[nH]2)c1 [Compound 355, 2-(3-Aminophenyl)-8-bromo[1]benzofuro[3,2-d]pyrimidin-4(3H)-one] |
